Values joined by “and” are separate entries in the source; they are usually repeats but may differ in a detail not shown here. Equal values may be shown once.
Tests used:
[1] = system: cellular NAD+ levels in CaLu-3 cells; assay: Quantification of cellular NAD+ (enzymatic cycling kit, normalised to protein); format: cell-based
wildtype Mac1 [2] = molecular target: T1, wildtype Mac1 (Severe acute respiratory syndrome coronavirus 2, UniProt P0DTD1); format: biochemical, SARS-CoV-2
[3] = molecular target: NADase from Neurospora crassa (Neurospora crassa, UniProt Q7S936); format: biochemical
Sequence of NADase from Neurospora crassa (Q7S936 20-243 limits assumed): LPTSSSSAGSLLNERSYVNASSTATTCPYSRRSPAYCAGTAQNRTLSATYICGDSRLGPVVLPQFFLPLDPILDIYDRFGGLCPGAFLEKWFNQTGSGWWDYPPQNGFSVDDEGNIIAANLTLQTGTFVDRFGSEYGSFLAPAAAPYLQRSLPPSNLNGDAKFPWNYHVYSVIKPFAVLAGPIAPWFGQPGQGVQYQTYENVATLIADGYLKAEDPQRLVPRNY

Mac1 [4] = conditions: cited from earlier work
[5] = pH 7.3
pig liver esterase (PLE) = conditions: pH 7.3
in vitro = conditions: human, pH 7.4
physchem = conditions: pH 7.3
Mac1 of SARS-CoV-2 [6] = molecular target: T2, Mac1 of SARS-CoV-2 (Severe acute respiratory syndrome coronavirus 2, UniProt P0DTD1); assay: Fluorimetric microplate assay for Mac1 activity (α-NAD+ hydrolysis, post-reaction derivatisation); format: biochemical
Mac1 of SARS-CoV-2 [7] = molecular target: T2, Mac1 of SARS-CoV-2; assay: biochemical; conditions: pIC50 (±SD) for Mac1 inhibition
human MacroD1 = human MacroD1 (Homo sapiens, UniProt Q9BQ69); format: biochemical
Sequence of human MacroD1 (Q9BQ69 whole entry): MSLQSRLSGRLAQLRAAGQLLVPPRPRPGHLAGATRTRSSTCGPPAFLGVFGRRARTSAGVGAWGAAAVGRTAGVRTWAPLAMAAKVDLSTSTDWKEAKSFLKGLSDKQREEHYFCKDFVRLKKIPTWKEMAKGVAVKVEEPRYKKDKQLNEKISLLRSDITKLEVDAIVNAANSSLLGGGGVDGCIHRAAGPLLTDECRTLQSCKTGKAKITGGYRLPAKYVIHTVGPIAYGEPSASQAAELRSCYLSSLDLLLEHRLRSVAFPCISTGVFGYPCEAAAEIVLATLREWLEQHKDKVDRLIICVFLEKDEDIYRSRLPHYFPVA

human MacroD2 = human MacroD2 (Homo sapiens, UniProt A1Z1Q3); format: biochemical
Sequence of human MacroD2 (A1Z1Q3 whole entry): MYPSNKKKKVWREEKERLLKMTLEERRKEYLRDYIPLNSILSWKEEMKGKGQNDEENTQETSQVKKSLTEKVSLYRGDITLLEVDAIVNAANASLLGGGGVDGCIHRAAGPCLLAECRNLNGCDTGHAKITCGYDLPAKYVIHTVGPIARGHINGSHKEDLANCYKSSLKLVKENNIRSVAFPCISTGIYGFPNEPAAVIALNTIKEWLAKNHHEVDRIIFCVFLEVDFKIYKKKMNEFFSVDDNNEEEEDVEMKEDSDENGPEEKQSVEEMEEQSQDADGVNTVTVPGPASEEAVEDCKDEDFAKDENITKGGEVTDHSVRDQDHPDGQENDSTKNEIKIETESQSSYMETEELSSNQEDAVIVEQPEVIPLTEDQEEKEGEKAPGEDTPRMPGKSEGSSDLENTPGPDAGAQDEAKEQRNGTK

wildtype Mac1 [8] = molecular target: T1, wildtype Mac1; format: binding
Mac1 [9] = conditions: cited from earlier work; remark: listed apart in the source

## O=C(/C=C/c1cccnc1)NCCCCC1CCN(C(=O)c2ccccc2)CC1 [FK866]
[1]
  reduction of cellular NAD levels: ~ 90%

## NC(=O)c1ccc[n+]([C@@H]2O[C@H](COP(=O)([O-])OP(=O)(O)OC[C@H]3O[C@@H](n4cnc5c(N)ncnc54)[C@H](O)[C@@H]3O)[C@@H](O)[C@H]2O)c1 [compound 2, β-NAD^+]
Wildtype Mac1 [2]
  hydrolysis by Mac1 (in words): intact
[3]
  hydrolysis by NADase (in words): hydrolyzed

## N#C[C@@]1(c2ccc3c(N)ncnn23)O[C@H](CO)[C@@H](O)[C@H]1O [compound 3, GS-441524]
Mac1 [4]
  affinity for Mac1 compared with ADPR 1 (in words): affinity similar to ADPR 1

## COP(=O)(O)OP(=O)(O)OC[C@H]1O[C@@](C#N)(c2ccc3c(N)ncnn23)[C@H](O)[C@@H]1O [compound 4, β-methyl-GS-441524-DP]
CaLu-3 cells; human, pH 7.4
  time at which cellular uptake reached an equilibrium: 15 min

## CCCCCCCCCCCC(=O)Oc1ccc(COP(=O)(OC)OP(=O)(O)OC[C@H]2O[C@@](C#N)(c3ccc4c(N)ncnn34)[C@H](O)[C@@H]2O)cc1 (stereo partly drawn) [compound 5, C11-AB-β-methyl-GS-441524-DP]
CaLu-3 cells
  decrease of β-NAD+ 2 levels: 62%
CaLu-3 cells; human, pH 7.4
  GS-441524-MP 40 formed, share of the total of detectable 40 and deprotected compound: 24%
  intracellular concentration: 0.3 to 0.4 µM
[5]
  time at which incipient decomposition to GS-441524-MP 40 was discovered: 30 s
Pig liver esterase (PLE)
  hydrolysis with pig liver esterase (in words): successful
In vitro
  CC50: > 50 µM
physchem
  half-life: 61 h

## O=c1[nH]cnc2c1ncn2C1OC(COP(=O)(O)OP(=O)(O)OCC2OC(O)C(O)C2O)C(O)C1O (stereo not drawn) [compound 10, inosine-5′-O-diphosphoribose]
Mac1 of SARS-CoV-2 [6]
  Inhibition of Mac1 (in words): did not inhibit Mac1

## Nc1nc(F)nc2c1ncn2C1OC(COP(=O)(O)OP(=O)(O)OCC2OC(O)C(O)C2O)C(O)C1O (stereo not drawn) [compound 11, 2-F-ADPR]
Mac1 of SARS-CoV-2 [6]
  IC50: 191 µM

## Nc1ncnc2c1nc(-c1ccsc1)n2C1OC(COP(=O)(O)OP(=O)(O)OCC2OC(O)C(O)C2O)C(O)C1O (stereo not drawn) [compound 12, 8-thiophen-3-yl-ADPR]
Mac1 of SARS-CoV-2 [7]
  IC50: 251 µM

## Nc1ncnc2c1nc(Br)n2C1OC(COP(=O)(O)OP(=O)(O)OCC2OC(O)C(O)C2O)C(O)C1O (stereo not drawn) [compound 13, 8-Br-ADPR]
Human MacroD1
  Inhibition of human MacroD1 (in words): low micromolar range
Human MacroD2
  Inhibition of human MacroD2 (in words): low micromolar range

## Nc1ncnc2c1cc(Br)n2C1OC(COP(=O)(O)OP(=O)(O)OCC2OC(O)C(O)C2O)C(O)C1O (stereo not drawn) [compound 14, 8-Br-7-deaza-ADPR]
Mac1 of SARS-CoV-2 [6]
  IC50: 38 µM

## Nc1ncnc2c1ncn2[C@@H]1O[C@H](COP(=O)(O)OP(=O)(O)OC[C@H]2O[C@@H](O)C(O)[C@H]2O)C(O)[C@@H]1OP(=O)(O)O (stereo partly drawn) [compound 15, ADPR-2′-phosphate]
Wildtype Mac1 [8]
  TΔS: -5.4 ± 1.2 kcal/mol
  ΔH: -11.5 ± 0.2 kcal/mol
Mac1 [4]
  affinity for Mac1 compared with ADPR 1 (in words): slightly higher affinity than ADPR 1

## Nc1ncnc2c1ncn2[C@H]1C[C@H](O)[C@@H](COP(=O)(O)OP(=O)(O)OC[C@H]2OC(O)[C@H](O)[C@@H]2O)O1 (stereo partly drawn) [compound 16, 2′-deoxy-ADPR]
Wildtype Mac1 [8]
  TΔS: -5.9 ± 0.2 kcal/mol
  ΔH: -12.5 ± 0.2 kcal/mol

## Nc1ncnc2c1ncn2[C@@H]1O[C@H](COP(=O)(O)OP(=O)(O)O)[C@@H](O)[C@H]1O [compound 18, ADP]
Mac1 of SARS-CoV-2 [6]
  pIC50 (±SD) for Mac1 inhibition: 2.44 and 2.3 ± 0.1
Mac1 [9]
  thermal stabilisation of Mac1 (in words): not thermally stabilised

## Nc1ncnc2c1ccn2C1OC(COP(=O)(O)OP(=O)(O)OCC2OC(O)C(O)C2O)C(O)C1O (stereo not drawn) [compound 22, 7-Deazaadenosine DP ribose]
Mac1 of SARS-CoV-2 [6]
  IC50: 14.5 µM

## Nc1ncnc2c1ncn2[C@@H]1O[C@H](COP(=O)(O)OP(=O)(O)O[C@H]2O[C@H](CO)[C@@H](O)[C@H](O)[C@H]2O)[C@@H](O)[C@H]1O [compound 23, ADP-glucose]
Mac1 of SARS-CoV-2 [6]
  Inhibition of Mac1 (in words): no detectable inhibition

## Nc1ncnc2c1ncn2[C@@H]1O[C@H](COP(=O)(O)OP(=O)(O)OC2CCCC2)[C@@H](O)[C@H]1O [compound 27, β-cyclopentyl-ADP]
Mac1 of SARS-CoV-2 [6]
  pIC50 (±SD) for Mac1 inhibition: 2.79

## Nc1ncnc2c1ncn2[C@@H]1O[C@H](COP(=O)(O)CP(=O)(O)O)[C@@H](O)[C@H]1O [compound 34, α-β methylene-ADP]
Mac1 of SARS-CoV-2 [6]
  Inhibition of Mac1 (in words): none of these compounds inhibited Mac1

## Nc1ncnc2c1ncn2[C@@H]1O[C@H](COP(=O)(O)OP(=O)(O)S)[C@@H](O)[C@H]1O (stereo partly drawn) [compound 35, adenosine-5′-O-(2-thiodiphosphate)]
Mac1 of SARS-CoV-2 [6]
  IC50: 3890 µM

## Nc1ncnc2c1ncn2[C@@H]1O[C@H](CO)[C@@H](O)[C@H]1O [compound 38, adenosine]
Mac1 of SARS-CoV-2 [6]
  Inhibition of Mac1 (in words): showed no inhibition

## Nc1ncnc2c1ncn2[C@@H]1O[C@H](COP(=O)(O)O)[C@@H](O)[C@H]1O [compound 39, AMP]
Mac1 of SARS-CoV-2 [6]
  Inhibition of Mac1 (in words): showed no inhibition

## N#C[C@@]1(c2ccc3c(N)ncnn23)O[C@H](COP(=O)(O)O)[C@@H](O)[C@H]1O [compound 40, GS-441524-monophosphate]
Mac1 of SARS-CoV-2 [6]
  IC50: 43.7 µM

Reference: paper PMC13408504, “Design, structure-based optimization and antiviral evaluation of potent inhibitors for the macrodomain Mac1 of SARS-CoV-2” (Nature Communications, 2026)
